What all share (type): cell-based
The target of one series is T1, human CXCR4 (Homo sapiens, UniProt P61073).
T1 construct: expressed in transfected cells; host or cells: HEK-293 cells (stably expressing human macrophage scavenger receptor class A type 1), transduced with human CXCR4 BacMam and Gqi5 BacMam baculoviruses
Put plainly: Functional FLIPR assay (block of SDF-1 alpha induced [Ca2+]i change). The note with it: HEK-293 cells with human CXCR4 and Gqi5 BacMam; antagonism of SDF-1 alpha; read-out: Functional assay (pIC50) (converted). Here is the method: Human embryonic kidney (HEK-293) cells were maintained and harvested as described above. Cells were plated in 96-well, black clear bottom, poly-lysine coated plates at a concentration of 40,000 cells per well in a final volume of 100 ul containing human CXCR4 BacMam (MOI=25) and Gqi5 BacMam (MOI=12.5). The cells were incubated at 37° C., 5% CO2, 95% humidity for 24 h to allow for protein expression.
After the required incubation time the cells were washed once with 50 ul of fresh serum-free DMEM/F12 media containing probenicid. 50 ul of dye solution was then added to the cells (Calcium Plus Assay Kit Dye; Molecular Devices) was dissolved in 200 ml of the above probenicid/BSA containing media and incubated for 1 h. Cell plates were transferred to a Fluorometric Imaging Plate Reader (FLIPR). Upon addition the effect of the compounds on the change in [Ca^2+]i was examined to determine if the compounds were agonists or antagonists (ability to block SDF-1 alpha activity) at the CXCR4 receptor. IC50 values are determined and pKb values are calculated using the Leff and Dougall equation: KB=IC50/((2+([agonist]/EC50ˆb)ˆ1/b−1) Where IC50 is that defined by the antagonist concentration-response curve [agonist] is the EC80 concentration of agonist used EC50 is that defined by the agonist concentration-response curve b is the slope of the agonist concentration-response curve.

The nature of series [1]: Compound cytotoxicity in the absence of virus (CellTiter-Glo). The settings on record: human; HOS cells, no virus; read-out: Cytotox (pIC50) (converted). The procedure: (§1) Compounds were profiled against two HIV-1 viruses, the M-tropic (CCR5 utilizing) Ba-L strain and the T-tropic (CXCR4 utilizing) IIIB strain. Both viruses were propagated in human peripheral blood lymphocytes. Compounds were tested for there ability to block infection of the HOS cell line (expressing hCXCR4/hCCR5/hCD4/pHIV-LTR-luciferase) by either HIV-1 Ba-L or HIV-1 IIIB. Compound cytotoxicity was also examined in the absence of virus addition.
(§2) HOS cells (expressing hCXCR4/hCCR5/hCD4/pHIV-LTR-luciferase) were harvested and diluted in Dulbeccos modified Eagles media supplemented with 2% FCS and non-essential amino acid to a concentration of 60,000 cells/ml. The cells were plated into 96-well plates (100 ul per well) and the plates were placed in a tissue culture incubator (37° C.; 5% CO2/95% air) for a period of 24 h.
(§3) Subsequently, 50 ul of the desired drug solution (4 times the final concentration) was added to each well and the plates were returned to the tissue culture incubator (37° C.; 5% CO2/95% air) for 1 h. Following this incubation 50 ul of diluted virus was added to each well (approximately 2 million RLU per well of virus). The plates were returned to the tissue culture incubator (37° C.; 5% CO2/95% air) and were incubated for a further 96 h.
(§4) Following this incubation the endpoint for the virally infected cultures was quantified following addition of Steady-Glo Luciferase assay system reagent (Promega, Madison, Wis.). Cell viability or non-infected cultures was measured using a CellTiter-Glo luminescent cell viability assay system (Promega, Madison, Wis.). All luminescent readouts are performed on a Topcount luminescence detector (Packard, Meridien, Conn.).
(In ATP-based viability assays light output follows the ATP content of the culture.)

The test system of a further series is HIV-1 IIIB. Put plainly: HOS HIV-1 infectivity assay, IIIB strain. The settings on record: Human immunodeficiency virus 1; HOS cells, HIV-1 IIIB (T-tropic, CXCR4 utilizing), 96 h; read-out: HOS (3B). Here is the method:
HOS HIV-1 Infectivity Assay
as §1
HOS HIV-1 Infectivity Assay Format
as §2, §3, §4

Series [2] deals with HOS (hCXCR4/hCCR5/hCD4/pHIV-LTR-luciferase) cells and HEK-293 cells expressing HIV-1 gp160 (HXB2 strain). Put plainly: Cell/cell fusion assay (luciferase). The note with it: Homo sapiens, HEK293; 24 h, luciferase readout; read-out: Fusion assay (pIC50) (converted). An excerpt:
The complete coding sequences of HIV-1 tat (GenBank Accession No. X07861) and rev (GenBank Accession No. M34378) were cloned into pcDNA3.1 expression vectors containing G418 and hygromycin resistance genes, respectively. The complete coding sequence of the HIV-1 (HXB2 strain) gp160 envelope gene (nucleotide bases 6225-8795 of GenBank Accession No. K03455) was cloned into plasmid pCRII-TOPO. The three HIV genes were additionally inserted into the baculovirus shuttle vector, pFastBacMam1, under the transcriptional control of the CMV promoter. A construction of the pHIV-I LTR containing mutated NFkB sequences linked to the luciferase reporter gene was prepared by digesting pcDNA3.1, containing the G418 resistance gene, with Nru I and Bam HI to remove the CMV promoter. LTR-luc was then cloned into the Nru I/Bam HI sites of the plasmid vector. Plasmid preparations were performed after the plasmids were amplified in Escherichia coli strain DH5-alpha. The fidelity of the inserted sequences was confirmed by double-strand nucleotide sequencing using an ABI Prism Model 377 automated sequencer.
BacMam Baculovirus Generation
Recombinant BacMam baculoviruses were constructed from pFastBacMam shuttle plasmids by using the bacterial cell-based Bac-to-Bac system. Viruses were propagated in Sf9 (Spodoptera frugiperda) cells cultured in Hink's TNM-FH Insect media supplemented with 10% (v/v) fetal bovine serum and 0.1% (v/v) pluronic F-68 according to established protocols.
Human osteosarcoma (HOS) cells that naturally express human CXCR4 were transfected with human CCR5, human CD4 and the pHIV-LTR-luciferase plasmid using FuGENE 6 transfection reagent. Single cells were isolated and grown under selection condition in order to generate a stable HOS (hCXCR4/hCCR5/hCD4/pHIV-LTR-luciferase) clonal cell line. The cells were maintained in Dulbeccos modified Eagles media supplemented with 10% fetal calf serum (FCS), G418 (400 ug/ml), puromycin (1 ug/ml), mycophenolic acid (40 ug/ml), xanthine (250 ug/ml) and hypoxanthine (13.5 ug/ml) to maintain a selection pressure for cells expressing the LTR-luciferase, hCCR5 and hCD4, respectively. Human embryonic kidney (HEK-293) cells stably transfected to express the human macrophage scavenging receptor (Class A, type 1; GenBank Accession No. D90187), were maintained in DMEM/F-12 media (1:1) supplemented with 10% FCS and 1.5 ug/ml puromycin. The expression of this receptor by the HEK-293 cells enhances their ability to stick to tissue culture treated plasticware.
Transduction of HEK-293 cells
HEK-293 cells were harvested using enzyme-free cell dissociation buffer. The cells were resuspended in DMEM/F-12 media supplemented with 10% FCS and 1.5 ug/ml and counted. Tranductions were performed by direct addition of BacMam baculovirus containing insect cell media to cells. The cells were simultaneously transduced with BacMam baculovirus expressing HIV-1 tat, HIV-1 rev and HIV-1 gp160 (from the HXB2 HIV strain). Routinely an MOI of 10 of each virus was added to the media containing the cells. 2 mM butyric acid was also added to the cells at this stage to increase protein expression in transduced cells. The cells were subsequently mixed and seeded into a flask at 30 million cells per T225. The cells were incubated at 37° C., 5% CO2, 95% humidity for 24 h to allow for protein expression.
Cell/Cell Fusion Assay Format
HEK and HOS cells were harvested in DMEM/F-12 media containing 2% FCS and DMEM media containing 2% FCS, respectively, with no selection agents added. Compounds were plated as 1 ul spots in 100% DMSO on a 96-well CulturPlate plates. HOS cells (50 ul) were added first to the wells, followed immediately by the HEK cells (50 ul). The final concentration of each cell type was 20,000 cells per well. Following these additions, the cells were returned to a tissue culture incubator (37° C.; 5% CO2/95% air) for an additional 24 h.
Measurement of Luciferase Production […]

The test system of a further series is HIV. Put plainly: HOS HIV infectivity assay (Table 2, strain not given). The settings on record: Human immunodeficiency virus 1, read-out: Activity Level. The method in brief: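 HOS cells expressing hCXCR4/hCCR5/hCD4 and an HIV-LTR-luciferase reporter were preincubated with compound for 1 h in DMEM/2% FCS. They were then infected with HIV-1 Ba-L or IIIB (about 2 million RLU/well) for 96 h at 37° C. Infection was read by luciferase luminescence, and viability in uninfected cultures by CellTiter-Glo.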

T1 sequence (P61073 whole entry): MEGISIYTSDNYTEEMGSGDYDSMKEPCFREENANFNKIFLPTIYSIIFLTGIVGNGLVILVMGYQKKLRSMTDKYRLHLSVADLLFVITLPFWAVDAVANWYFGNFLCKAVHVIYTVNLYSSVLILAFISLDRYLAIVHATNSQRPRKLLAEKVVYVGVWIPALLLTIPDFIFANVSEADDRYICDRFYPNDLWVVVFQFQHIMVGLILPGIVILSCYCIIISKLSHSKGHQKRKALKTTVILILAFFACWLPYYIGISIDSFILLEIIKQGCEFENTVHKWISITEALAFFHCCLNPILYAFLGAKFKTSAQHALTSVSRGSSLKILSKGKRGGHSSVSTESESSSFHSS

For the compound `CN1CCN(c2cccc3nc(CN(C)C4CCCc5cccnc54)cn23)CC1` (stereo not drawn) [Example 6, N-Methyl-N-{[5-(4-methyl-1-piperazinyl)imidazo[1,2-a]pyridin-2-yl]methyl}-5,6,7,8-tetrahydro-8-quinolinamine], the IC50 on human CXCR4 is 7.94 nM; in the series on HIV-1 IIIB, 6.3 nM; in series [2] it was 3.31 nM; with HIV, below 100 nM. Also, the IC50 at 96 h in series [1] is above 100000 nM.

`CCN1CCN(c2cccc3nc(CN(C)C4CCCc5cccnc54)cn23)CC1` (stereo not drawn) [Example 7, N-{[5-(4-Ethyl-1-piperazinyl)imidazo[1,2-a]pyridin-2-yl]methyl}-N-methyl-5,6,7,8-tetrahydro-8-quinolinamine]: the IC50 was 6.92 nM at human CXCR4, 11 nM in the series with HIV-1 IIIB, 11.2 nM in series [2] and below 100 nM in the series with HIV. Also, the IC50 at 96 h in series [1] was above 100000 nM.

On to `CC(C)N1CCN(c2cccc3nc(CN(C)C4CCCc5cccnc54)cn23)CC1` (stereo not drawn) [Example 8, N-Methyl-N-({5-[4-(1-methylethyl)-1-piperazinyl]imidazo[1,2-a]pyridin-2-yl}methyl)-5,6,7,8-tetrahydro-8-quinolinamine], for which the IC50 at human CXCR4 is 9.77 nM; in the series with HIV-1 IIIB, 16 nM; in series [2], 22.4 nM; with HIV, below 100 nM. Further, the IC50 at 96 h in series [1] is above 100000 nM.

Turning to `CN(Cc1cn2c(N3CCN(C(=O)OC(C)(C)C)CC3)cccc2n1)C1CCCc2cccnc21` (stereo not drawn) [Example 9, 1,1-Dimethylethyl 4-(2-{[methyl(5,6,7,8-tetrahydro-8-quinolinyl)amino]methyl}imidazo[1,2-a]pyridin-5-yl)-1-piperazinecarboxylate], the IC50 on human CXCR4 is 363 nM; with HIV-1 IIIB, 300 nM; in series [2] it was 912 nM. For the same compound, the IC50 at 96 h in series [1] is above 100000 nM.

Regarding `CN(C)[C@@H]1CCN(c2cccc3nc(CN(CC4CC4)[C@H]4CCCc5cccnc54)cn23)C1` [Example 99, (8S)—N-(Cyclopropylmethyl)-N-({5-[(3R)-3-(dimethylamino)-1-pyrrolidinyl]imidazo[1,2-a]pyridin-2-yl}methyl)-5,6,7,8-tetrahydro-8-quinolinamine], the IC50 in the series with HIV is below 100 nM.

On to `CC(c1cn2c(N3CCN(C)CC3)cccc2n1)N(C)[C@H]1CCCc2cccnc21` (stereo partly drawn) [Example 100, (8S)—N-Methyl-N-{1-[5-(4-methyl-1-piperazinyl)imidazo[1,2-a]pyridin-2-yl]ethyl}-5,6,7,8-tetrahydro-8-quinolinamine], for which the IC50 with HIV was below 100 nM.

On to `CN(C)CCNc1cccc2nc(CN(C)[C@H]3CCCc4cccnc43)cn12` [Example 101, N,N-Dimethyl-N′-[2-({methyl[(8S)-5,6,7,8-tetrahydro-8-quinolinyl]amino}methyl)imidazo[1,2-a]pyridin-5-yl]-1,2-ethanediamine], for which the IC50 in the series on HIV is below 100 nM.

In the case of `CN(Cc1cn2c(NCCN3CCCC3)cccc2n1)[C@H]1CCCc2cccnc21` [Example 102, (8S)—N-Methyl-N-[(5-{[2-(1-pyrrolidinyl)ethyl]amino}imidazo[1,2-a]pyridin-2-yl)methyl]-5,6,7,8-tetrahydro-8-quinolinamine], the IC50 in the series with HIV was below 100 nM.

In the case of `CN(Cc1cn2c(NCCN3CCCCC3)cccc2n1)[C@H]1CCCc2cccnc21` [Example 103, (8S)—N-Methyl-N-[(5-{[2-(1-piperidinyl)ethyl]amino}imidazo[1,2-a]pyridin-2-yl)methyl]-5,6,7,8-tetrahydro-8-quinolinamine], the IC50 in the series with HIV was below 100 nM.

`CN(C)CCOc1cccc2nc(CN(C)[C@H]3CCCc4cccnc43)cn12` [Example 104, (8S)—N-[(5-{[2-(Dimethylamino)ethyl]oxy}imidazo[1,2-a]pyridin-2-yl)methyl]-N-methyl-5,6,7,8-tetrahydro-8-quinolinamine]: the IC50 in the series on HIV is below 100 nM.

As to `CN(Cc1cn2c(OCCN3CCCC3)cccc2n1)[C@H]1CCCc2cccnc21` [Example 105, (8S)—N-Methyl-N-[(5-{[2-(1-pyrrolidinyl)ethyl]oxy}imidazo[1,2-a]pyridin-2-yl)methyl]-5,6,7,8-tetrahydro-8-quinolinamine], in the series with HIV, the IC50 is below 100 nM.

On to `CN(Cc1cn2c(OCCN3CCCCC3)cccc2n1)[C@H]1CCCc2cccnc21` [Example 106, (8S)—N-Methyl-N-[(5-{[2-(1-piperidinyl)ethyl]oxy}imidazo[1,2-a]pyridin-2-yl)methyl]-5,6,7,8-tetrahydro-8-quinolinamine], for which the IC50 with HIV is below 100 nM.

These data come from patent US20070232615A1, “Chemical Compounds” (priority 2004, published 2007).
